Experimental data published in paper PMC9945734 (BMC Medicine, 2023).
Where “and” joins values, the source holds several entries; their conditions need not be identical. Identical values can stand only once.

Test system: PC-3-KQ and PC-3-KR cells
Assay: RNA-sequencing and differential gene expression
Type: cell-based, human
Parameters: CEP19 tpm_KQ_NTZ / CCNA1 tpm_KQ_NTZ / BTN3A3 tpm_KQ_NTZ / CAPSL tpm_KQ_NTZ / CELF3 tpm_KQ_NTZ / C5orf63 tpm_KQ_NTZ / tpm MSMP / tpm MYH7B / tpm CACNG8 / CNTNAP3B tpm_KQ_NTZ / IL21R tpm_KQ_NTZ / CYP8B1 tpm_KQ_NTZ / C2orf78 tpm_KQ_NTZ / CALB1 tpm_KQ_NTZ / COL4A3 tpm_KQ_NTZ / CFB tpm_KQ_NTZ / PFKFB1 tpm_KQ_NTZ / BTBD11 tpm_KQ_NTZ: scale not given here
Details: RNA-Seq
[1] = PC-3-KQ cells with NTZ, replicates NTZ1-3, listed as NTZ

## CC(=O)Oc1ccccc1C(=O)Nc1ncc([N+](=O)[O-])s1 [Nitazoxanide]
[1]
  tpm DMPK: 0.419 and 0.3493 and 0.1665
  tpm DRP2: -0.6676 and -1.3 and -0.607
  tpm ECM2: -0.5146 (2×) and 0.2506
  tpm FAM186B: -0.5789 and -0.1828 and -0.4779
  tpm FER1L6: -0.0478 and 0.008832 and -0.09563
  tpm FLT1: 0.161 and -0.1482 and -0.7906
  tpm FSD2: -0.9288 and -1.378 and -0.8049
  tpm FTH1: 1.05 and 1.051 and 1.128
  tpm FXYD3: -0.3733 and -0.2655 and -0.4971
  tpm GALNT12: 0.1641 and 0.2605 and 0.1597
  tpm GRAMD2A: -1.217 and -0.8334 and -0.5772
  tpm HID1: 1.101 and 0.7299 and 0.9267
  tpm HPSE2: -0.4281 and -0.1645 and -0.06191
  tpm IDO1: -0.05198 and -0.1635 and 0.07694
  tpm IGDCC4: 1.025 and 0.5822 and 0.3088
  tpm INHBA: -0.4046 and -0.5562 and -0.8145
  tpm INHBB: 0.08661 and -0.02356 and -0.07924
  tpm KIAA1755: -0.4724 and -0.3852 and -0.1722
  tpm KLHDC7B: 1.013 and 1.073 and 1.158
  tpm LOC105374299: 0.8275 and 1.276 and 1.486
  tpm LOC107987158: 0.1622 and -0.3121 and -1.443
  tpm LONRF2: 0.1017 (2×) and -0.7266
  tpm MAP7D3: 0.1661 and 0.1563 and -0.001507
  tpm MEF2C: 0.3074 (2×) and -0.8164
  tpm MEOX1: -0.388 and -0.5893 and -0.8851
  tpm MINAR1: 1.487 and 0.4714 and 0.64
  tpm MSMP: -0.1946 and -0.01672 and -0.03466
  tpm MUC4: 0.5142 and 1.164 and 1.212
  tpm MYH7B: -0.4262 and -0.2568 and 0.1543
  tpm PDGFRL: 0.618 and 0.4346 and 0.4486
  tpm PLEKHA7: -0.3096 and -0.2197 and -0.3271
  tpm PLEKHG1: -0.07347 and -0.05792 and -0.2
  tpm PRRT4: 0.01578 and 0.2412 and 0.04865
  tpm RORC: 0.6069 and 0.189 and 1.342
  tpm RP1L1: -0.07855 and -0.3562 and -1.072
  tpm RPP25: 0.2387 and 0.2331 and 0.2609
  tpm SAT1: 0.7632 and 0.7179 and 0.7837
  tpm SAXO2: -1.3 and 0.5697 and 0.468
  tpm SERPINA5: 0.2889 and 0.09986 and -0.2457
  tpm SERPINB3: -1.23 and -0.7997 and -0.9984
  tpm SERPINF2: 0.3503 and 0.1655 and 0.444
  tpm SGK3: -0.2978 and 0.6129 and 0.5003
  tpm SLC22A4: -0.6184 and -1.014
  tpm SLFN11: -0.5865 and -0.5524 (2×)
  tpm SRPX: 0.5121 and 0.498 and 0.6168
  tpm STARD4: 0.9661 and 0.7143
  tpm SVEP1: -0.8267 and -1.268 and -1.176
  tpm TBX2: 0.468 and 0.2574 and 0.908
  tpm TCN1: 0.4136 and 0.08826 and 0.5034
  tpm TNF: 0.3176 and 0.1804
  tpm TNFRSF6B: -0.5827 and 0.1186 and -0.2431
  tpm TNFSF14: 1.093 and 1.162 and 1.079
  tpm TRIM31: -0.6801 and -0.02951 and -0.5211
  tpm UGT2B7: -0.4066 and -0.3815 and -0.4168
  tpm XKRX: -0.4846 and 0.05471 and 0.3317
  tpm ZNF28: 0.116 and -1.142 and -0.2155
  tpm ZNF302: -0.4799 and 0.1803 and -0.08669
PC-3-KQ cells
  AADACL3 Change (KQ-Control vs KQ-NTZ): DOWN
  AADACL3 logFC (KQ-Control vs KQ-NTZ): -1.5511
  ABCA1 Change (KQ-Control vs KQ-NTZ): DOWN
  ABCA1 logFC (KQ-Control vs KQ-NTZ): -1.1023
  ABCB4 Change (KQ-Control vs KQ-NTZ): DOWN
  ABCB4 logFC (KQ-Control vs KQ-NTZ): -1.0876
  ADORA1 Change (KQ-Control vs KQ-NTZ): DOWN
  ADORA1 logFC (KQ-Control vs KQ-NTZ): -0.6297
  ANKRD36C Change (KQ-Control vs KQ-NTZ): DOWN
  ANKRD36C logFC (KQ-Control vs KQ-NTZ): -0.823
  ANKRD63 Change (KQ-Control vs KQ-NTZ): DOWN
  ANKRD63 logFC (KQ-Control vs KQ-NTZ): -0.8191
  ANXA8L1 Change (KQ-Control vs KQ-NTZ): DOWN
  ANXA8L1 logFC (KQ-Control vs KQ-NTZ): -1.2337
  APLN Change (KQ-Control vs KQ-NTZ): DOWN
  APLN logFC (KQ-Control vs KQ-NTZ): -0.8669
  ARL10 Change (KQ-Control vs KQ-NTZ): DOWN
  ARL10 logFC (KQ-Control vs KQ-NTZ): -0.6715
  ARX logFC (KQ-Control vs KQ-NTZ): 0.8688
  ASB2 Change (KQ-Control vs KQ-NTZ): DOWN
  ASB2 logFC (KQ-Control vs KQ-NTZ): -1.5518
  ASRGL1 Change (KQ-Control vs KQ-NTZ): DOWN
  ASRGL1 logFC (KQ-Control vs KQ-NTZ): -0.6209
  BDKRB2 Change (KQ-Control vs KQ-NTZ): DOWN
  BDKRB2 logFC (KQ-Control vs KQ-NTZ): -1.3479
  BRINP2 Change (KQ-Control vs KQ-NTZ): DOWN
  BRINP2 logFC (KQ-Control vs KQ-NTZ): -0.6846
  BTBD11 Change (KQ-Control vs KQ-NTZ): DOWN
  BTBD11 logFC (KQ-Control vs KQ-NTZ): -1.0629
  C2orf78 Change (KQ-Control vs KQ-NTZ): DOWN
  C2orf78 logFC (KQ-Control vs KQ-NTZ): -0.8606
  CACNG8 Change (KQ-Control vs KQ-NTZ): DOWN
  CACNG8 logFC (KQ-Control vs KQ-NTZ): -1.0729
  CAPSL Change (KQ-Control vs KQ-NTZ): DOWN
  CAPSL logFC (KQ-Control vs KQ-NTZ): -0.8068
  CD14 Change (KQ-Control vs KQ-NTZ): DOWN
  CD14 logFC (KQ-Control vs KQ-NTZ): -2.3874
  CEP19 Change (KQ-Control vs KQ-NTZ): DOWN
  CEP19 logFC (KQ-Control vs KQ-NTZ): -0.5995
  CNTNAP3B Change (KQ-Control vs KQ-NTZ): DOWN
  CNTNAP3B logFC (KQ-Control vs KQ-NTZ): -1.4339
  COL4A6 Change (KQ-Control vs KQ-NTZ): DOWN
  COL4A6 logFC (KQ-Control vs KQ-NTZ): -0.6049
  CSF3 Change (KQ-Control vs KQ-NTZ): DOWN
  CSF3 logFC (KQ-Control vs KQ-NTZ): -0.9191
  CXCL5 Change (KQ-Control vs KQ-NTZ): DOWN
  CXCL5 logFC (KQ-Control vs KQ-NTZ): -1.0464
  DEPTOR Change (KQ-Control vs KQ-NTZ): DOWN
  DEPTOR logFC (KQ-Control vs KQ-NTZ): -0.7982
  DMC1 Change (KQ-Control vs KQ-NTZ): DOWN
  DMC1 logFC (KQ-Control vs KQ-NTZ): -0.9749
  DRP2 Change (KQ-Control vs KQ-NTZ): DOWN
  DRP2 logFC (KQ-Control vs KQ-NTZ): -1.0796
  ECM2 Change (KQ-Control vs KQ-NTZ): DOWN
  ECM2 logFC (KQ-Control vs KQ-NTZ): -0.755
  EFCAB6 Change (KQ-Control vs KQ-NTZ): DOWN
  EFCAB6 logFC (KQ-Control vs KQ-NTZ): -0.8325
  FAM43A Change (KQ-Control vs KQ-NTZ): DOWN
  FAM43A logFC (KQ-Control vs KQ-NTZ): -1.1246
  FAM83D Change (KQ-Control vs KQ-NTZ): DOWN
  FAM83D logFC (KQ-Control vs KQ-NTZ): -0.5981
  FAM186B Change (KQ-Control vs KQ-NTZ): DOWN
  FAM186B logFC (KQ-Control vs KQ-NTZ): -0.6856
  FANCI Change (KQ-Control vs KQ-NTZ): DOWN
  FANCI logFC (KQ-Control vs KQ-NTZ): -0.7453
  FANCL Change (KQ-Control vs KQ-NTZ): DOWN
  FANCL logFC (KQ-Control vs KQ-NTZ): -0.6097
  FCGBP Change (KQ-Control vs KQ-NTZ): DOWN
  FCGBP logFC (KQ-Control vs KQ-NTZ): -2.5743
  FLI1 Change (KQ-Control vs KQ-NTZ): DOWN
  FLI1 logFC (KQ-Control vs KQ-NTZ): -0.8219
  FLRT1 Change (KQ-Control vs KQ-NTZ): DOWN
  FLRT1 logFC (KQ-Control vs KQ-NTZ): -0.8174
  FLT1 Change (KQ-Control vs KQ-NTZ): DOWN
  FLT1 logFC (KQ-Control vs KQ-NTZ): -0.8
  FOXI1 Change (KQ-Control vs KQ-NTZ): DOWN
  FOXI1 logFC (KQ-Control vs KQ-NTZ): -1.9605
  FOXP3 Change (KQ-Control vs KQ-NTZ): DOWN
  FOXP3 logFC (KQ-Control vs KQ-NTZ): -1.1132
  FSD2 Change (KQ-Control vs KQ-NTZ): DOWN
  FSD2 logFC (KQ-Control vs KQ-NTZ): -1.2199
  FZD4 Change (KQ-Control vs KQ-NTZ): DOWN
  FZD4 logFC (KQ-Control vs KQ-NTZ): -1.1759
  GBX2 Change (KQ-Control vs KQ-NTZ): DOWN
  GBX2 logFC (KQ-Control vs KQ-NTZ): -0.9793
  GPR19 Change (KQ-Control vs KQ-NTZ): DOWN
  GPR19 logFC (KQ-Control vs KQ-NTZ): -0.6847
  GRAMD2A Change (KQ-Control vs KQ-NTZ): DOWN
  GRAMD2A logFC (KQ-Control vs KQ-NTZ): -1.0971
  H3C1 Change (KQ-Control vs KQ-NTZ): DOWN
  H3C1 logFC (KQ-Control vs KQ-NTZ): -0.9324
  HAS3 Change (KQ-Control vs KQ-NTZ): DOWN
  HAS3 logFC (KQ-Control vs KQ-NTZ): -1.3005
  HPSE2 Change (KQ-Control vs KQ-NTZ): DOWN
  HPSE2 logFC (KQ-Control vs KQ-NTZ): -0.9315
  HSD3B1 Change (KQ-Control vs KQ-NTZ): DOWN
  HSD3B1 logFC (KQ-Control vs KQ-NTZ): -0.7148
  IGF2BP1 Change (KQ-Control vs KQ-NTZ): DOWN
  IGF2BP1 logFC (KQ-Control vs KQ-NTZ): -0.8373
  IGFBP4 Change (KQ-Control vs KQ-NTZ): DOWN
  IGFBP4 logFC (KQ-Control vs KQ-NTZ): -1.0441
  IGSF23 Change (KQ-Control vs KQ-NTZ): DOWN
  IGSF23 logFC (KQ-Control vs KQ-NTZ): -0.7201
